Source: US10344330B2, “Glatiramer acetate response biomarker mRNA potency assay” (Mylan Inc., priority 2013, dated 2019)

B1: MBP: myelin basic protein, a negative control (protein, UniProt P02686 1-304, looked up)
Myelin basic protein: MGNHAGKRELNAEKASTNSETNRGESEKKRNLGELSRTTSEDNEVFGEADANQNNGTSSQDTAVTDSKRTADPKNAWQDAHPADPGSRPHLIRLFSRDAPGREDNTFKDRPSESDELQTIQEDSAATSESLDVMASQKRPSQRHGSKYLATASTMDHARHGFLPRHRDTGILDSIGRFFGGDRGAPKRGSGKDSHHPARTAHYGSLPQKSHGRTQDENPVVHFFKNIVTPRTPPPSQGKGRGLSLSRFSWGAEGQRPGFGYGGRASDYKSAHKGFKGVDAQGTLSKIFKLGGRDSRSGSPMARR

Tests used:
Format in all cases: cell-based, mouse
[1] = system: IL-2 secreted by LN cells; test: IL-2 secretion by GA-stimulated LN cells, MSD 9-plex ELISA (Example II); conditions: for IL-2 secretion response ratio (treated cell medium to control DCCM1 medium): 21 hr
IL-13 mRNA in LN cells = test: IL-13 mRNA by real-time PCR in LN cells of GA-immunized CD-1, BALB/cByJ, SJL/J mice (Example III); conditions: 6 hours
Protocol: On Day 0, mice were immunized with 250 μg GA (GMA, Mylan Pharmaceuticals, Inc.) and CFA. The GA solution (20 mg/mL) was diluted with Dulbecco's Phosphate-Buffered Saline to 5 mg/mL. The dosing formulation consisted of equal volumes of the diluted GA solution (5 mg/mL) and CFA solution, mixed until well-emulsified. Animals were weighed and allocated to groups. Animals were dosed by injection into four footpads. The injection volume per animal was 0.1 mL (about 10 μL into each front footpad, and 40 μL into each hind footpad).
Immunized animals were euthanized by cervical dislocation on Day 10 post-immunization. Lymph node cells were isolated from animals and treated with Myelin Basic Protein (MBP, a negative control), Concanavalin A (ConA, a positive control) or GA as shown in Table 16. Lymph nodes in the axillary and popliteal regions were removed aseptically in a purifier clean bench. […] The LN were then washed 3 times with −5 mL of RPMI medium, and isolated by pressing the LN with a syringe plunger. […] The cell suspension was centrifuged at about 200×g for 10 minutes at about 4° C. and re-suspended in ice cold enriched DCCM-1 medium. Cells were seeded in 96-well tissue culture plates.
LN cells isolated from GA-immunized animals were stimulated with GA (GMA, Mylan Pharmaceuticals, Inc.) at concentrations as indicated in Tables 16 and 17. A positive control was prepared by treating LN cells with 2.5 μg/mL concavalin A (ConA, a non-specific T cell stimulant). Myelin basic protein (MBP, 10 μg/mL) and enriched DCCM-1 medium served as negative controls. The cells from all groups each were stimulated with the same GA lot. Each reaction was set up in triplicate.
After incubation at about 37° C. in a humidified CO2 incubator for 6 hours, the cells were lysed for total RNA isolation. Total RNA was isolated from treated LN cells using SV 96 Total RNA Isolation System according to the manufacturer's protocol (Promega, Cat. #Z3500). Cells were washed once with Phosphate Buffered Saline (PBS) and lysed in RNA lysis buffer. The lysate was transferred to wells of the SV 96 binding plate. Samples were washed with RNA wash solution and treated with DNase. Total RNA was eluted with nuclease-free water from the binding plate.
After the reverse transcriptase reaction was completed, cDNA samples were used directly for real-time PCR to measure the response biomarker mRNA levels produced by the stimulated cells. […] All probes for target genes contained FAM dye, and probes for the internal control contained VIC®/MGB dye. Samples will be prepared and run in 96-well plates using a Real-Time PCR system (7500, Life Technologies). This system allows direct detection of PCR-product formation by measuring the increase in fluorescent emission continuously during the PCR reaction. A relative quantitation method was used to analyze changes in mouse IL-2, IL-4, IL-5, IL-10, IL-13, IFN-γ and TNF-α expression in GA-treated samples relative to the untreated control (enriched DCCM-1 treated) samples. The Real-Time PCR program was:
The levels of mouse cytokine amplicons (IL-2, IL-4, IL-5, IL-10, IL-13, mIFN-γ and TNF-α) were normalized to internal probe levels (GAPDH) from the same samples. The following equations were used to calculate the relative increase in response to GA stimulation compared to the control sample: ΔCT=CT_target−CT_reference ΔΔCT=−ΔCT_Treated−CT_VC

[2] = system: IL-5 secreted by LN cells; test: IL-5 secretion by GA-stimulated LN cells, MSD 9-plex ELISA (Example II); conditions: for IL-5 secretion response ratio (treated cell medium to control DCCM1 medium): 21 hr
Protocol: (§1) Animals at 8 weeks of age were immunized by injection into four footpads using a 1 mL syringe with a 27-G, 1⁄2-inch needle. […] Ten days post-immunization, immunized animals were sacrificed via cervical dislocation. […] The LN cells were isolated by pressing the LN with the plunger end of a sterile syringe. […] Trypan blue exclusion method was used to determine the cell density of viable cells in the suspension. […] Cat. […] LN cells were plated into a 24-well tissue culture plate for drug stimulation. […] Cell debris was removed by centrifugation at ca. 200×g for 10 minutes at 4° C. Cytokines secreted by treated cells were determined on the day of collection by ELISA using mouse TH 1/TH 2 9-Plex Tissue Culture Kit (Meso Scale Discovery; Cat No. […]-2, Lot #: K0032839) which detects Th1 cytokines (IFN-γ, IL-2, IL-12, IL-1β, TNF-α, CXCL1) and Th2 cytokines (IL-4, IL-5 and IL-10). For IFN-γ, culture media also were assayed at 45 hours using mouse IFN-γ Tissue Culture Kit (Meso Scale Discovery; Cat No. […] For the positive control, 0.5 mL of LN cells (5×10^6 cells/well) were treated with 0.5 mL of ConA (5 μg/mL). For the negative control, 0.5 mL of LN cells (5×10^6 cells/well) were treated with 0.5 mL of MBP (20 μg/mL). The LN cells with mock stimulation (enriched DCCM1 medium) were used to monitor the background level of a cytokine. For the cytokine assays, calibration standards or samples were incubated in the MULTI-SPOT or the SINGLE-SPOT plate and each cytokine bound to its corresponding capture antibody. All test samples were run in duplicate. The amount of each cytokine on its distinct spot was quantified using a cytokine-specific detection antibody labeled with MSD SULFO-TAGTM reagent. Electrochemiluminescent signals from immobilized SULFO-TAGTM-labeled complexes on each spot from each well were captured by the MSD SECTOR Imager 6000, which produces a signal directly proportional to the amount of captured cytokine in a test sample. The levels of cytokines in test samples were derived by interpolation from calibration curves with calibration standards of known concentrations using reagents provided with the MSD kits. Kits were used according to the manufacturer's protocols. […] Data are expressed as a response ratio of cytokine concentration in treated cell medium to control DCCM1 medium.

[3] = system: IL-2 secreted by LN cells; test: IL-2 secretion by GA-stimulated LN cells, MSD 9-plex ELISA (Example II); conditions: 21 hr
Protocol: as §1

[4] = Group 1C: CD-1, GA-immunized, stimulation 10 μg/mL
[5] = Group 2C: BALB/cByJ, GA-immunized, stimulation 10 μg/mL
[6] = Group 3C: SJL/J, GA-immunized, stimulation 10 μg/mL
[7] = BALB/cByJ, immunized GA Lower Limb
[8] = C57BL10J, immunized GA Intraplantar
[9] = C57BL10J, immunized GA Lower Limb
[10] = BALB/cByJ, immunized GA Intraplantar
[11] = BALB/cByJ, immunized Mannitol Intraplantar
[12] = C57BL10J, immunized Mannitol Intraplantar
[13] = CD-1, immunized GA Intraplantar
[14] = CD-1, immunized Mannitol Intraplantar

| Molecule | IL-13 mRNA Expression (IL-13 mRNA in LN cells; [4]) [fold change vs control] | IL-13 mRNA Expression (IL-13 mRNA in LN cells; [5]) [fold change vs control] | IL-13 mRNA Expression (IL-13 mRNA in LN cells; [6]) [fold change vs control] | IL-2 secretion response ratio (treated cell medium to control DCCM1 medium) [1, 7] | IL-2 secretion response ratio (treated cell medium to control DCCM1 medium) [1, 8] | IL-2 secretion response ratio (treated cell medium to control DCCM1 medium) [1, 9] | IL-2 secretion response ratio (treated cell medium to control DCCM1 medium) ([1]; CD-1, immunized GA Lower Limb) | IL-2 secretion response ratio (treated cell medium to control DCCM1 medium) [3, 10] | IL-2 secretion response ratio (treated cell medium to control DCCM1 medium) [3, 11] | IL-2 secretion response ratio (treated cell medium to control DCCM1 medium) [3, 12] | IL-2 secretion response ratio (treated cell medium to control DCCM1 medium) [3, 13] | IL-2 secretion response ratio (treated cell medium to control DCCM1 medium) [3, 14] | IL-5 secretion response ratio (treated cell medium to control DCCM1 medium) [2, 10] | IL-5 secretion response ratio (treated cell medium to control DCCM1 medium) [2, 7] | IL-5 secretion response ratio (treated cell medium to control DCCM1 medium) [2, 11] | IL-5 secretion response ratio (treated cell medium to control DCCM1 medium) [2, 8] | IL-5 secretion response ratio (treated cell medium to control DCCM1 medium) [2, 9] | IL-5 secretion response ratio (treated cell medium to control DCCM1 medium) [2, 12] | IL-5 secretion response ratio (treated cell medium to control DCCM1 medium) [2, 13] | IL-5 secretion response ratio (treated cell medium to control DCCM1 medium) ([2]; CD-1, immunized GA Lower Limb) | also measured |
| --- | --- | --- | --- | --- | --- | --- | --- | --- | --- | --- | --- | --- | --- | --- | --- | --- | --- | --- | --- | --- | --- |
| L-glutamic acid polymer with L-alanine, L-lysine and L-tyrosine, acetate (salt) [GA] | 12.3 | 12.6 | 20.0 | – | – | – | – | – | – | – | – | – | – | – | – | – | – | – | – | – | IL-2 secretion, dose response to GA (in words) ([1]; LN cells from each of the three mouse strains): dose-dependent manner; IL-13 mRNA Expression (IL-13 mRNA in LN cells; Group 1C: CD-1, GA-immunized, stimulation 0.3 μg/mL): 1.7 fold change vs control; IL-13 mRNA Expression (IL-13 mRNA in LN cells; Group 1C: CD-1, GA-immunized, stimulation 1 μg/mL): 3.3 fold change vs control; IL-13 mRNA Expression (IL-13 mRNA in LN cells; Group 1C: CD-1, GA-immunized, stimulation 3 μg/mL): 9.4 fold change vs control; IL-13 mRNA Expression (IL-13 mRNA in LN cells; Group 2C: BALB/cByJ, GA-immunized, stimulation 0.3 μg/mL): 3.2 fold change vs control; IL-13 mRNA Expression (IL-13 mRNA in LN cells; Group 2C: BALB/cByJ, GA-immunized, stimulation 1 μg/mL): 9.1 fold change vs control; IL-13 mRNA Expression (IL-13 mRNA in LN cells; Group 2C: BALB/cByJ, GA-immunized, stimulation 3 μg/mL): 12.4 fold change vs control; IL-13 mRNA Expression (IL-13 mRNA in LN cells; Group 3C: SJL/J, GA-immunized, stimulation 0.3 μg/mL): 1.7 fold change vs control; IL-13 mRNA Expression (IL-13 mRNA in LN cells; Group 3C: SJL/J, GA-immunized, stimulation 1 μg/mL): 7.3 fold change vs control; IL-13 mRNA Expression (IL-13 mRNA in LN cells; Group 3C: SJL/J, GA-immunized, stimulation 3 μg/mL): 12.9 fold change vs control; IL-5 secretion, dose response to GA (in words) ([2]; BALB/cByJ cells and CD1 cells): dose-dependent manner |
| Concanavalin A [ConA, reference compound] | – | – | – | 283.65 | 40.09 | 31.11 | 19.64 | 229.32 | 281.66 | 28.71 | 85.01 | 68.22 | 22.09 | 14.24 | 13.33 | 8.16 | 5.24 | 3.93 | 13.49 | 6.35 | IL-13 mRNA Expression (IL-13 mRNA in LN cells; Group 1C: CD-1, GA-immunized, stimulation 2.5 μg/mL): 31.3 fold change vs control; IL-13 mRNA Expression (IL-13 mRNA in LN cells; Group 2C: BALB/cByJ, GA-immunized, stimulation 2.5 μg/mL): 32.0 fold change vs control; IL-13 mRNA Expression (IL-13 mRNA in LN cells; Group 3C: SJL/J, GA-immunized, stimulation 2.5 μg/mL): 24.4 fold change vs control; IL-5 secretion response ratio (treated cell medium to control DCCM1 medium) [2, 14]: 7.11 |
| B1 | 1.5 | 0.8 | 0.6 | 1.13 | 1.18 | 1.30 | 1.29 | 0.97 | 0.97 | 0.98 | 0.98 | 1.28 | 1.22 | 0.99 | 1.07 | 1.31 | 0.85 | 0.99 | 1.33 | 1.00 | IL-5 secretion response ratio (treated cell medium to control DCCM1 medium) [2, 14]: 1.16 |
